{
  "source": "ChEMBL document CHEMBL1157411",
  "about": "“Marine natural product libraries for high-throughput screening and rapid drug discovery” (J Nat Prod, 2008)",
  "key": {"Nucleic Acid": {"tested_on": "Nucleic Acid", "experiment": "Binding affinity to supercoiled pRYG plasmid DNA assessed as DNA intercalation at 50 uM after 21 hrs by electrophoresis", "assay_type": "nucleic-acid assay"}, "[1]": {"experiment": "Cytotoxicity against BRCA2-proficient Chinese hamster BAC29 mutant cells after 3 days by WST1 cell viability assay", "assay_type": "functional, cell-based", "settings": "Cricetulus griseus, WST1, 72 h"}, "[2]": {"experiment": "Selectivity ratio for IC50 of BRCA2-deficient Chinese hamster V-C8 mutant cells to IC50 of BRCA2-proficient Chinese hamster BAC29 mutant cells", "assay_type": "functional, Cricetulus griseus"}, "[3]": {"experiment": "Cytotoxicity against BRCA2-deficient Chinese hamster V-C8 mutant cells after 3 days by WST1 cell viability assay", "assay_type": "functional, cell-based", "settings": "Cricetulus griseus, WST1, 72 h"}},
  "note": "Calls of active or inactive are those of the source. The calls are words filed in the database; no cut-off is given here.",
  "data": [
    {"molecule": "COc1cccc2c1C(=O)c1c(O)c3c(c(O)c1C2=O)C[C@@](O)(C(=O)CO)C[C@@H]3O[C@H]1C[C@H](N)[C@H](O)[C@H](C)O1", "values": [
      {"measurement": "Activity", "setting": "Nucleic Acid", "result": "Active"}
    ]},
    {"molecule": "CO[C@@]12[C@H](COC(N)=O)C3=C(C(=O)C(C)=C(N)C3=O)N1C[C@@H]1N[C@@H]12", "note": "[MITOMYCIN]", "values": [
      {"measurement": "IC50", "setting": "[1]", "result": 400, "unit": "nM"},
      {"measurement": "Ratio IC50", "setting": "[2]", "result": 292},
      {"measurement": "IC50", "setting": "[3]", "result": 5, "unit": "nM"}
    ]}
  ]
}
